Earlier results in patent US20070265281A1, “Organic Compounds and Their Uses” (priority 2006, published 2007).

System: HCV
Settings: ribavirin alone

NC(=O)c1ncn([C@@H]2O[C@H](CO)[C@@H](O)[C@H]2O)n1 [Ribavirin, 1-β-D-ribofuranosyl-1-1,2,4-triazole-3-caroxamide]
serum levels of HCV-RNA (patients): does not lower
patients in whom serum amino transferase levels are reduced to normal: 40%
